Values of other authors, collected in patent publication US9050351B2, “Topical compositions designed to maintain or restore the integrity of the mucous membranes” (RICEFARMA S.R.L., priority 2010, dated 2015).

Experiments:
[1] = as disclosed in WO93/19730

## C[N+](C)(C)CCOP(=O)([O-])OC[C@H](O)CO [choline alfoscerate, L-alpha-glycerylphosphorylcholine]
[1]
  incidence of skin irritation, eye irritation and skin sensitisation: low
  systemic toxicity: practically devoid
  topical tolerability: marked
other
  solubility in water and ethanol: highly soluble
